Values of other authors, collected in patent US6753298B2, “Agents for combating Neospora spec” (Bayer AG, priority 1997, dated 2004).

System: Neospora
Conditions: experimentally infected mice; administered by drinking water

Question: For Nc1ccc(S(=O)(=O)Nc2ncccn2)cc1 [sulphadiazine], which in-vivo efficacy is on record?
Answer: Its in-vivo efficacy is “effective only when the treatment was prophylactic”.
